Some results are limits rather than exact numbers.

The assay has as its target T1, CDK2/CycE1 (Homo sapiens, UniProt P24941).
T1 construct: 1.5 nM CDK2/CycE1, amino acids 1-298/1-410, Carna BS; purchased Carna BS (Carna Biosciences) 04-165, lot 20CBS-0731B
Kind of assay: CDK2 inhibition assay, PhosphoSens CSox-based Kinetic Assay Format (AssayQuant). The format is biochemical. To be noted: 1.5 nM CDK2/CycE1, 1.5× Km ATP, 30 minute preincubation at 30° C., reaction 240 minutes; read-out: IC50 CDK2-CycE1 (AssayQuant) Using PhosphoSens ® CSox-based Kinetic Assay Format. Here is the method:
Inhibition of CDK2 was measured using PhosphoSens® CSox-based Kinetic Assay Format (AssayQuant Technologies) as follows:
• 2.5 μl 10× Inhibitor in 10% DMSO (3-fold titration in 10% DMSO for a final DMSO concentration of 1%) • […] Reaction Mix with ATP, DTT, & CSx Substrate • 30 minute preincubation at 30° C. • […] Enzyme dilution buffer (EDB) (1×) or Kinase (5× in EDB); Enzyme Dilution Buffer (EDB): 20 mM HEPES, pH 7.5, 0.01% Brij-35, 0.1 mM EGTA, 5% Glycerol, 1.0 mg/ml BSA, 1.0 mM DTT • 25 μL Final reaction volume • Reaction was run at 30° C. for 240 minutes
• 54 mM HEPES, pH 7.5 • 1.5× Km ATP (see ATP TAB) • 1.2 mM DTT • 0.012% Brij-35 • 0.52 mM EGTA • 1% glycerol • 0.2 mg/ml BSA • 10 mM MgCl2 • 15 μM AQT0297
Reactions were run in Corning, low volume 384-well, white flat round bottom polystyrene NBS microplates (Cat. #3824) after sealing using optically-clear adhesive film (TopSealA-Plus plate seal, PerkinElmer [Cat. #6050185])
The letter codes for CDK2 inhibition include: A (<100 nM), B (≥100-500 nM), C (>500-1000 nM), and D (>1000 nM).
By IC50 is commonly meant the concentration at which inhibition is half-maximal. Take `CCS(=O)(=O)c1ccc(Nc2ncc(C(F)(F)F)c(-c3cnn(C)c3)n2)c(C)c1` [I-27, N-(4-ethylsulfonyl-2-methyl-phenyl)-4-(1-methylpyrazol-4-yl)-5-(trifluoromethyl) pyrimidin-2-amine]: the IC50 was less than 100 nM.
Next, `CCS(=O)(=O)c1ccc(Nc2nccc(-c3cnc(C)n3C(C)C)n2)c(C)c1` [I-29, N-(4-ethylsulfonyl-2-methyl-phenyl)-4-(3-isopropyl-2-methyl-imidazol-4-yl) pyrimidin-2-amine]: 100 to 500 nM; `CCS(=O)(=O)c1ccc(Nc2ncc3cc(Cl)c(=O)n(C(C)C)c3n2)c(C)c1` [I-30]: 100 to 500 nM; `CCS(=O)(=O)c1ccc(Nc2ncc3cc(C(F)F)c(=O)n(C(C)C)c3n2)c(C)c1` [I-31]: greater than 1000 nM.
As for `CCS(=O)(=O)c1ccc(Nc2ncc3c(n2)N(C2CCCC2)C(=O)C32CC2)c(C)c1` [I-35], the IC50 was less than 100 nM.
Next, `CCS(=O)(=O)c1ccc(Nc2ncc(C(F)(F)F)c([C@H]3CC[C@@](C)(O)CC3)n2)c(C)c1` [I-40]: greater than 1000 nM.
Next, `Cc1cc(S(=O)(=O)C2CCC3(CC2)CN(C)C3)ccc1Nc1ncc2cc(Cl)c(=O)n(C3CCCC3)c2n1` [I-41]: less than 100 nM; `CCS(=O)(=O)c1ccc(Nc2ncc3cc(C(F)F)nc(N4CCCC4)c3n2)c(C)c1` [I-42]: less than 100 nM.
Next, `CCS(=O)(=O)c1ccc(Nc2ncc(C(F)(F)F)c([C@H]3CC[C@](C)(O)CC3)n2)c(C)c1` [I-43]: greater than 1000 nM; `CCS(=O)(=O)c1ccc(Nc2ncc(C(F)(F)F)c(-c3cn(C(C)C)c(C)n3)n2)c(C)c1` [I-44]: less than 100 nM; `CCS(=O)(=O)c1ccc(Nc2ncc(C(F)(F)F)c(-c3cnn(C)c3C(F)F)n2)c(C)c1` [I-45]: 500 to 1000 nM.
Take `CCS(=O)(=O)c1ccc(Nc2ncc3cc(F)c(=O)n(C4CCCC4)c3n2)c(C)c1` [I-52]: the IC50 lay within 100 to 500 nM.
Next, `CCS(=O)(=O)c1ccc(Nc2ncc3cc(C(F)(F)F)c(=O)n(C4CCCC4)c3n2)c(C)c1` [I-53]: 500 to 1000 nM; `CNS(=O)(=O)c1ccc(Nc2ncc(C(F)(F)F)c([C@H]3CC[C@@](C)(O)CC3)n2)c(C)c1` [I-67]: less than 100 nM.
Next, `CNS(=O)(=O)c1ccc(Nc2ncc(C(F)(F)F)c(C3CCCCC3)n2)c(C)c1` [I-68]: greater than 1000 nM.
Turning to `Cc1cc(CS(C)(=O)=O)ccc1Nc1ncc2cc(Cl)c(=O)n(C(C)C)c2n1` [I-197], the IC50 is greater than 1000 nM.
Next, `Cc1cc(CS(C)(=N)=O)ccc1Nc1ncc2cc(Cl)c(=O)n(C(C)C)c2n1` (stereo not drawn) [I-207]: 100 to 500 nM; `CCS(=N)(=O)c1ccc(Nc2ncc3cc(Cl)c(=O)n(C(C)C)c3n2)c(C)c1` (stereo not drawn) [I-208]: 100 to 500 nM.
For the compound `COCc1cc(-c2ccc(Nc3ncc4cc(Cl)c(=O)n(C(C)C)c4n3)c(C)c2)n(C)n1` [I-210], the concentration for half-maximal inhibition (IC50) was greater than 1000 nM.
Next, `CC(C)(O)c1cccc2cnc(NC3CCN(S(C)(=O)=O)CC3)cc12` [I-212]: 100 to 500 nM; `CNS(=O)(=O)c1cc(C)c(Nc2ncc3cc(Cl)c(=O)n(C(C)C)c3n2)cn1` [I-213]: 100 to 500 nM; `CC(C)c1cccc2cnc(NC3CCN(S(C)(=O)=O)CC3)nc12` [I-215]: less than 100 nM.
Next, `CNS(=O)(=O)c1ccc(Nc2ncc3cc(Cl)c(=O)n(C(C)C)c3n2)c(C)n1` [I-218]: 100 to 500 nM.
As for `CC(=O)N(c1ccc(-c2cnn(C)c2)cc1)[C@H]1CC[C@H](Nc2ncc3cc(Cl)c(=O)n(C(C)C)c3n2)CC1` [I-228], the IC50 is 100 to 500 nM.
Next, `CNS(=O)(=O)c1ccc(Nc2nc(OC3CCCCC3)c3ncsc3n2)c(C)c1` [I-234]: greater than 1000 nM; `CC(=O)N1CCC(Nc2ncc3cc(Cl)c(=O)n(C(C)C)c3n2)CC1` [I-235]: 500 to 1000 nM.
Next, `COC1CC2(CCC(Nc3ncc4cc(Cl)c(=O)n(C5CCCC5)c4n3)CC2)C1` (stereo not drawn) [I-239]: greater than 1000 nM; `CNS(=O)(=O)c1ccc(Nc2ncc3cc(C(F)F)c(=O)n(C4CCCC4)c3n2)c(C)c1` [I-242]: less than 100 nM.
For the compound `CNS(=O)(=O)c1ccc(Nc2ncc3cc(Cl)c(=O)n(C(C)C)c3n2)c(C)c1` [I-247], the IC50 was less than 100 nM.
Next, `CNS(=O)(=O)c1ccc(Nc2ncc3ccc(=O)n(C4CCCC4)c3n2)c(C)c1` [I-252]: less than 100 nM.
With `Cn1cc(S(=O)(=O)N2CCC(Nc3ncc4c(n3)N([C@@H]3CCC[C@@]3(C)O)C(=O)C43CC3)CC2)cn1` [I-254], the IC50 was less than 100 nM.
`Cn1cc(S(=O)(=O)N2CCC(Nc3ncc4c(n3)N(C3CCCC3)C(=O)C43CC3)CC2)cn1` [I-255]: the IC50 was less than 100 nM.
Next, `CNS(=O)(=O)c1ccc(Nc2ncc3cc(C(F)F)c(=O)n([C@@H]4CCC[C@@]4(C)O)c3n2)c(C)c1` [I-256]: less than 100 nM.
For the compound `CNS(=O)(=O)c1ccc(Nc2ncc(C(F)(F)F)c(-c3cnc(C)n3C(C)C)n2)c(C)c1` [I-265], the IC50 fell in the range of 100 to 500 nM.
Consider `CNS(=O)(=O)c1ccc(Nc2ncc(C(F)(F)F)c(-c3cn(C(C)C)c(C)n3)n2)c(C)c1` [I-266], for which the IC50 is less than 100 nM.
Next, `CNS(=O)(=O)c1ccc(Nc2ncc(C(F)(F)F)c(-c3cnn(C)c3C(F)F)n2)c(C)c1` [I-267]: 100 to 500 nM; `CNS(=O)(=O)c1ccc(Nc2nccc(-c3cnc(C)n3C(C)C)n2)c(C)c1` [I-269]: less than 100 nM.
As to `CNS(=O)(=O)c1ccc(Nc2ncc(C(F)(F)F)c(C3CCOCC3)n2)c(C)c1` [I-271], the IC50 was 500 to 1000 nM.
Next, `Cc1cc(S(N)(=O)=O)ccc1Nc1ncc(C(F)(F)F)c(-c2cnn(C)c2)n1` [I-272]: less than 100 nM.

Source of the values: patent US20240174665A1, “CDK2 INHIBITORS AND USES THEREOF” (Kymera Therapeutics, Inc., priority 2022, published 2024).
